Experimental data: patent publication US12172964B2, “Tricyclic octacationic cyclophane and its use in complexation with perlene diimide dyes” (Northwestern University, priority 2020, dated 2024)
Several values for one entry are separate records, joined by “and”; a condition that tells them apart may be missing. Equal entries are not always repeated. Marks after values point to notes of the source that are not given here.

Columns and labels:
[1] = Isothermal titration calorimetry (ITC); assay type: binding; conditions: for ΔG: directly determined by ITC
Method: In all ITC experiments, ExBox.4Cl and XCage.8CF3CO2 were used in titrations. Here we use ExBox^4+ and XCage^8+ for short. All of the solutions were prepared in spectroscopic grade solvents and equilibrated for 24 h at room temperature before use. All of the titrations were independently duplicated—shown below is one set of titration isotherms—and all isotherm fittings were used to calculate the average Ka and ΔH with relevant standard errors.
Isothermal titration was performed by TA Nano Isothermal Titration Calorimeter at 25° C. A hastelloy cell was used with an active cell volume 190 μL. The stirring speed was set at 150 rpm. Receptor and substrate solutions were prepared in Milli-Q water or MeCN and allowed to equilibrate overnight if necessary. […] After subtracting the heat of dilution, the resulting data were analyzed with NanoAnalyze software using a 1:1 binding model and plotted by Origin Lab 8.6 software.

[2] = Binding constants by direct and displacement fluorescence titration; conditions: for ΔG / Ka Fluorescence: 25° C.; for ΔG: estimated from fluorescence titrations
Method: (§1) In all experiments shown below, ExBox.4Cl and XCage.8CF3CO2 were used in titration studies. Here we use ExBox^4+ and XCage^8+ for short. All of the solutions were prepared in spectroscopic grade solvents and equilibrated for 24 h at room temperature before use. All of the studies were independently duplicated and the corresponding isotherms were fitted to calculate the average Ka or kon values with the relevant standard errors.
Direct fluorescence titration experiments: Since the association between PDI2 and ExBox^4+ in H2O produces turn-on fluorescence, we tracked the increase of fluorescence (ex: 545 nm, em: 555 nm) of PDI2 by varying equivalents of ExBox^4+. Caffeine is not fluorescent in H2O and its association with XCage^8+ quenches the fluorescence of XCage^8+. Thus, the fluorescence quenching of XCage^8+ was tracked by the addition of Caffeine. In MeCN, the fluorescence of perylene is quenched by XCage^8+ and thus the titration was performed by tracking the fluorescence quenching of Perylene. A plot of fluorescent intensity versus receptor concentration [R]0 or substrate concentration [S]0 was fitted with a nonlinear least-squares fitting equation for 1:1 binding model to calculate the binding constant Ka using Origin Lab 8.6 software.^S14, S15
Displacement fluorescence titration experiments in H2O: A large access of the competitor caffeine (10 mM) was pre-mixed with XCage^8+ (10 μM), and the solution was equilibrated for 30 min before titration. The substrate solution of PDI2 was injected in aliquots. For each injection, the guest displacement process was relatively slow and took about 3-10 min to reach the equilibrium as monitored by the change of fluorescence (ex: 560 nm, em: 660 nm) over time. At this excitation wavelength, PDI2⊂XCage^8+ is fluorescent; XCage^8+, PDI2 and Caffeine are nonfluorescent. The association constants were calculated by fitting the titration data with a nonlinear least-squares fitting equation for displacement binding using Origin Lab 8.6 software.^S14
Displacement fluorescence titration experiments in MeCN: Perylene (250 μM) was premixed with XCage^8+ (5 μM) in MeCN, and the solution was equilibrated for 30 min before titration. The substrate solution of PDI2 was injected in aliquot amount. Between each injection, the change of fluorescence intensity was monitored over time until the fluorescence (ex: 550 nm, em: 660 nm) intensity reached a steady state. At this excitation wavelength, […] is fluorescent while XCage^8+ and PDI2 are nonfluorescent. The association constants were calculated by fitting the titration data with a nonlinear least-squares fitting equation for displacement binding using Origin Lab 8.6 software.^S14

[3] = Solubility observations; assay type: physicochemical
[4] = Photophysical characterization; assay type: physicochemical
Method: Commercially available solvents and chemicals were purchased from Sigma-Aldrich and Fisher Scientific and used without further purification unless otherwise stated. Water was deionized, and micro filtered using Milli-Q water filtration station. Compounds PDI1^S1 and ExBox.4Cl^S2 were prepared using previously reported procedures. Thin layer chromatography (TLC) was performed on silica gel 60 F254 (E. Merck). Flash column chromatography was performed by Combiflash Rf 200 purification system. Reverse phase column chromatography was performed on Combiflash NEXTGEN 300+ system with SNAP ULTRA C18 cartridges which were purchased from Biotage. UV/Vis Absorption spectra were recorded in a glass cuvette using a UV-3600 Shimadzu spectrophotometer. Steady-state emission spectra were acquired in a quartz cuvette with an optical path-length of 10 mm containing the solution of interest using HORIBA Fluoromax4 spectrofluorometer, which was equipped with an integrating sphere for absolute photoluminescence quantum yield determination and time-correlated single-photon counting (TCSPC) module for emission decays. Nuclear magnetic resonance (NMR) spectra were recorded on Bruker AVANCE III 500 MHz spectrometer equipped with DCH CryoProbe, with working frequencies of 500 MHz for ^1H and 125 MHz for ^13C nuclei. […] High-resolution mass spectra were measured on an Agilent 6210 Time of Flight (TOF) LC-MS, using an ESI source, coupled with Agilent 1100 HPLC stack, using direct infusion (0.6 mL/min). Single crystal data were obtained on a Bruker Kappa APEX2 CCD diffractometer using Cu-Kα radiation. Detailed experimental procedures are provided below in the appropriate sections.
The fluorescence quantum yield of PDI dyes were measured by using rhodamine 6G in EtOH (Φf=0.95) as standard.^S2 The concentrations of rhodamine 6G and PDI dyes were adjusted to the absorption value 0.08 at 450 nm. The fluorescence spectrum of each solution was obtained with excitation at 450 nm, and the integrated area was used in the fluorescence quantum yield calculation. The estimated error for this method^S13 is ±10%. The fluorescent life-time was measured by Horiba Fluoromax-4 fluorometer equipped with TCSPC. Samples were excited by a laser at 374 nm, and the fluorescence decay over time was monitored at 560 nm. The fluorescent decay profiles were analyzed by a DAS6 software and matched either by a single exponential decay or double exponential decay model through mathematic fittings.

[5] = Binding kinetics of threading PDI2 into XCage.8CF3CO2, tracked by turn-on fluorescence; conditions: water, second order kinetic model
Method: as §1
Equal volume of PDI2 (1 μL, 100 μM) and XCage^8+ (1 μL, 100 μM) were mixed in H2O (1 mL) and the change of fluorescence (ex: 540 nm, em: 554 nm) was monitored over time. The resulting threading kinetics profiles were fitted using a second order kinetics model by Origin Lab 8.6 software. In MeCN, the change of fluorescence over time upon the formation of PDI2⊂XCage^8+ is too small to produce a kinetics profile as a result of the similar quantum yield between PDI2⊂XCage^8+ and PDI2.

[6] = test system: MCF-7 cells; assay: Live-cell confocal microscopy; assay type: cell-based, human; conditions: MCF-7, 10 μM, 6 h
Method: (§2) MCF-7 cells (human breast adenocarcinoma cell line) obtained from American Type Culture Collection (ATCC, Rockville, Md., USA) was utilized for cell culture experiments. MCF-7 cells were cultured in Dulbecco's Modified Eagle's Medium (DMEM) supplemented with 10% fetal bovine serum (FBS), penicillin (100 IU/mL) and streptomycin (100 μg/mL) at 37° C. in the presence of air (95%) and carbon dioxide (5%).
(§3) MCF-7 cells (1×10^5 cells/ml, 300 μL) were plated in each well of an 8-well chamber slide (ThermoFischer Scientific) and adhered overnight. PDI2 or PDI2⊂XCage^8+ was added to each well and incubated for 6 h or 24 h. Cells were then washed with PBS, and stained with LysoTracker green (lysosome stain, 1:1000 dilution) or NucBlue™ Live ReadyProbes™ Reagent (nuclear stain, 1 drop) or Hoechst 33342 nucleic acid stain (1:2000 dilution from 10 mg/mL stock). Plated cells were imaged within a humidified chamber using a 63× oil-immersion objective on a SP5 Leica Confocal Microscope using HyD detectors and lasers or a Deltavision Core Elite with a DAPI excitation filter (381-399 nm), DAPI emission filter (em: 411-459 nm) and TRITC emission filter (em: 571-617 nm) at equivalent light levels and exposure time. Intensity of signal in cells was measured with FIJI/ImageJ software.

[7] = test system: MCF-7 cells; assay: Live-cell widefield fluorescence imaging using energy transfer; assay type: cell-based, human; conditions: MCF-7, 20 μM, 6 h
Method: as §2, §3

[8] = Binding thermodynamics of ExBox.4Cl towards PDI2 in water (fluorescence titration / ITC)
Method: Direct fluorescence titration experiments: […] All of the solutions were prepared in spectroscopic grade solvents and equilibrated for 24 h at room temperature before use. All of the titrations were independently duplicated—shown below is one set of titration isotherms—and all isotherm fittings were used to calculate the average Ka and ΔH with relevant standard errors. Isothermal titration was performed by TA Nano Isothermal Titration Calorimeter at 25° C. A hastelloy cell was used with an active cell volume 190 μL. The stirring speed was set at 150 rpm. Receptor and substrate solutions were prepared in Milli-Q water or MeCN and allowed to equilibrate overnight if necessary.

Cn1c(=O)c2c(ncn2C)n(C)c1=O [Caffeine, reference compound]
TΔS ([1]; H2O, 25° C.): −1.5 kcal mo1^−1 | ΔH ([1]; H2O, 25° C.): −8.6 kcal mo1^−1 | ΔG ([1]; H2O, 25° C.): −7.1^c kcal mo1^−1

c1cc2ccc1C[n+]1ccc(cc1)-c1cc3cc(c1)-c1cc4cc(c1)-c1cc[n+](cc1)Cc1ccc(cc1)C[n+]1ccc(cc1)-c1cc(cc(c1)-c1cc(cc(c1)-c1cc[n+](cc1)Cc1ccc(cc1)C[n+]1ccc-3cc1)-c1cc[n+](cc1)C2)-c1cc[n+](cc1)Cc1ccc(cc1)C[n+]1ccc-4cc1 [XCage.8CF3CO2]
binding constant for Perylene, times higher than that of ExBox^4+.4PF6 ([2]; MeCN): about 86 | enhancement of binding affinity towards PDI2 compared with ExBox.4Cl (factor) ([2]; water): 38,000 | TΔΔS, loss of binding entropy compared with ExBox.4Cl ([1]; water, guest PDI2): -0.5 kcal/mol | ΔΔH, gain in binding enthalpy compared with ExBox.4Cl ([1]; water, guest PDI2): -6.7 kcal/mol | solubility ([3]; MeCN): slightly soluble | solubility ([3]; water and MeOH): highly soluble | blue fluorescence emission range ([4]; water): 350-550 nm | fluorescence quantum yield ([4]; water): 10%

COCCOCCOCCOCCOCCOCCOCCOCCOCCOCCOCCOCCOCCOCCOCCOCCOCCOCCOCCOCCOCCOCCOCCOCCOCCOCCOCCOCCOCCOCCOCCOCCOCCOCCOCCOCCOCCOCCOCCOCCOCCOCCOCCOCCOCCN1C(=O)c2ccc3c4ccc5c6c(ccc(c7ccc(c2c37)C1=O)c64)C(=O)N(CCOCCOCCOCCOCCOCCOCCOCCOCCOCCOCCOCCOCCOCCOCCOCCOCCOCCOCCOCCOCCOCCOCCOCCOCCOCCOCCOCCOCCOCCOCCOCCOCCOCCOCCOCCOCCOCCOCCOCCOCCOCCOCCOCCOCCOC)C5=O [PDI2]
ΔG ([2]; H2O): −14.8^d kcal mo1^−1 | Ka Fluorescence ([2]; H2O, PDI2 by displacement in presence of 1000 molar equivalents of Caffeine): 7.7e+10 M⁻¹ | ΔG ([2]; MeCN): −13.0^d kcal mo1^−1 | TΔS ([1]; H2O, 25° C.): 0.7 kcal mo1^−1 | ΔH ([1]; H2O, 25° C.): −14.1 kcal mo1^−1 | TΔS ([1]; MeCN, 25° C.): 2.8 kcal mo1^−1 | ΔH ([1]; MeCN, 25° C.): −10.2 kcal mo1^−1 | binding enthalpy in water higher than in MeCN ([1]; water versus MeCN): 4 kcal/mol | kon [5]: (4.8±1.1)×10^5 M^−1s^−1 | fluorescence in brightfield-merged confocal images [6]: no fluorescence | fluorescence signal, DAPI excitation filter (ex: 381-399 nm), TRITC emission filter (em: 571-617 nm) [7]: did not show any fluorescence signal | logε ([4]; H2O): 4.48 | Φf ([4]; H2O): 0.04 | λabs ([4]; H2O): 497/534 | λem ([4]; H2O): 542/586/633 | λex ([4]; H2O): 461/502/529 | τ ([4]; H2O): 4.7 ns and 4.71 ns | fluorescence quantum yield ([4]; MeCN): 66% | logε ([4]; MeCN): 4.91 | red shift of absorption and emission maxima of PDI2 in the presence of XCage.8CF3CO2 ([4]; MeCN): 23-25 nm | Φf ([4]; MeCN): 0.66 | λem ([4]; MeCN): 529/568/617 | λex ([4]; MeCN): 452/482/518 | τ ([4]; MeCN): 4.47 ns | fluorescence quantum yield ([4]; water): 4%

c1cc2cccc3c4cccc5cccc(c(c1)c23)c54 [Perylene, reference compound]
Ka Fluorescence ([2]; MeCN, PDI2 by displacement of 50 molar equivalents of Perylene): 5e+06 M⁻¹ | Ka ITC ([1]; MeCN, 25° C.): 3.6e+06 M⁻¹ | TΔS ([1]; MeCN, 25° C.): 2.0 kcal mo1^−1 | ΔH ([1]; MeCN, 25° C.): −06.9 kcal mo1^−1 | ΔG ([1]; MeCN, 25° C.): −08.9^c kcal mo1^−1

c1cc2ccc1C[n+]1ccc(cc1)-c1ccc(cc1)-c1cc[n+](cc1)Cc1ccc(cc1)C[n+]1ccc(cc1)-c1ccc(cc1)-c1cc[n+](cc1)C2 [ExBox.4Cl]
binding affinity [8]: 2e+06 M⁻¹ | binding enthalpy [8]: -7.4 kcal/mol
